Data: patent publication US7053175B1, “Synthetic peptides useful in biological assays for detecting infections caused by group O HIV-1 viruses” (Bio-Rad Pasteur, priority 1997, dated 2006)
No end group written: not given here.

Test system: serum samples from patients infected with group O HIV-1 retroviruses
Experiment: Immunoenzymatic test: Test No. 2 (immunoreactivity with diluted sera)
Format: binding, human
Conditions: for Number of samples: sera of Table V; for Number of samples / ABSORBANCE (OD): solid phase peptide 2 μg/ml; for ABSORBANCE (OD): cyclized; for immunoreactivity compared with the reference peptides (in words): summary of Tables V and VI
Excerpt: The serum samples from patients infected with group O HIV-1 retroviruses were obtained by the Yaounde Pasteur Centre in Cameroon and were serotyped group O according to the serological algorithm described in AIDS (1977), 11, pp. 445-453. A genotyped sample (Maryland) is obtained from the United States. These samples were previously diluted in negative human serum at the dilutions given in Table V, in order to have a sufficient volume for the different immunoreactivity tests.
The synthetic peptides used were dissolved in water at a concentration of 1 mg/ml (stock solution). For the solid phase sensitization step (“coating”), the procedure was carried out as described for Example 2.
The serum samples were diluted 1/5 with a skimmed milk solution (citrate buffer supplemented with 0.01% of phenol red, 0.25% of chloroform and 0.25% of Kathon®), deposited in the wells of plates and incubated for 30 min at 40° C.
After washing with a Tris-NaCl buffer solution pH 7.4 containing 0.1% of Tween® 20 and 0.001% of sodium merthiolate, 100 μl of a solution of conjugate consisting of horseradish peroxidase-labelled anti-human IgG and IgM goat antibodies, containing as preservative 0.01% of sodium merthiolate, in solution in a citrate buffer solution supplemented with 30% glycerol and 25% normal foetal calf serum, were added to each well of the plates and then they were incubated for 30 min at 40° C.
After washing with a Tris-NaCl buffer solution pH 7.4 containing 0.1% of Tween® 20 and 0.001% of sodium merthiolate, the colour was developed as described in Example 2.
The relative absorbance (OD) (A490-A620) read in each well is proportional to the immunoreactivity of each peptide. It indicates the ability of each peptide to react with the biological sample with which the test is carried out.
The reactivity of the peptides of the invention, peptides No. 10 (14B), No. 11 (18B), No. 12 (19B), No. 14 (21B), No. 15 (22B), No. 16 (23B) all in cyclized form, was compared with that of three homologous synthetic peptides having, as sequence, a portion of the natural sequence of the envelope (env) of a group O HIV-1 retrovirus. These peptides are two peptides derived from the VAU isolate—the peptide VAU 22 AA and the peptide VAU 35 AA—and the peptide MVP 5180 (designated “MVP 5180” in Table V). The peptides VAU 22 AA and VAU 35 AA (whose structure is indicated in Example 2) and the peptide MVP 5180 comprise an immunodominant epitope of gp41.
All these peptides were used in cyclized form. The sequence of the MVP 5180 peptide is the following:
For each peptide tested, the samples were arranged into four classes (a, b, c and d) corresponding to various levels of relative absorbance read at the wavelengths A492-A620: • for a: OD<0.100, • for b: 0.100<OD<0.500, • for c: 0.500<OD<1.000, • for d: OD>1.000, thus making it possible to evaluate the degree of immunoreactivity of the peptides.

## ALETLLQNQQLLNSWGCRGRLVCYTSVRWNET [PEPTIDE No. 11 (18B)]
CLASS A (a: OD<0.100)
  Number of samples: 0
CLASS B (b: 0.100<OD<0.500)
  Number of samples: 9
CLASS C (c: 0.500<OD<1.000)
  Number of samples: 4
CLASS D (d: OD>1.000)
  Number of samples: 1
Serum 258 OUDI at 1/100
  ABSORBANCE (OD): 0.373
Serum 625 at 1/50
  ABSORBANCE (OD): 0.338
Serum 3600 at 1/100
  ABSORBANCE (OD): 0.360
Serum 3613 at ¼00
  ABSORBANCE (OD): 0.837
Serum 3653 at 1/10
  ABSORBANCE (OD): 0.337
Serum 4280 at 1/50
  ABSORBANCE (OD): 0.686
Serum 6111 at 1/100
  ABSORBANCE (OD): 0.348
Serum DJOU at 1/100
  ABSORBANCE (OD): 0.482
Serum DO15 at 1/100
  ABSORBANCE (OD): 0.859
Serum MBASSI at 1/100
  ABSORBANCE (OD): 1.150
Serum Maryland at ¼00
  ABSORBANCE (OD): 0.370
Serum NGO at 1/50
  ABSORBANCE (OD): 0.335
Serum NJEM at 1/100
  ABSORBANCE (OD): 0.811
Serum WANG at 1/50
  ABSORBANCE (OD): 0.234

## LLNSWGCKGRLVCYTS [PEPTIDE No. 10 (14B)]
CLASS A (a: OD<0.100)
  Number of samples: 3
CLASS B (b: 0.100<OD<0.500)
  Number of samples: 2
CLASS C (c: 0.500<OD<1.000)
  Number of samples: 5
CLASS D (d: OD>1.000)
  Number of samples: 4
Serum 258 OUDI at 1/100
  ABSORBANCE (OD): 0.587
Serum 625 at 1/50
  ABSORBANCE (OD): 0.838
Serum 3600 at 1/100
  ABSORBANCE (OD): 0.482
Serum 3613 at ¼00
  ABSORBANCE (OD): 1.108
Serum 3653 at 1/10
  ABSORBANCE (OD): 0.347
Serum 4280 at 1/50
  ABSORBANCE (OD): 0.022
Serum 6111 at 1/100
  ABSORBANCE (OD): 0.596
Serum DJOU at 1/100
  ABSORBANCE (OD): 1.268
Serum DO15 at 1/100
  ABSORBANCE (OD): 1.613
Serum MBASSI at 1/100
  ABSORBANCE (OD): 1.217
Serum Maryland at ¼00
  ABSORBANCE (OD): 0.524
Serum NGO at 1/50
  ABSORBANCE (OD): 0.067
Serum NJEM at 1/100
  ABSORBANCE (OD): 0.032
Serum WANG at 1/50
  ABSORBANCE (OD): 0.698

## LNQQRLLNSWGCKGRLVCYTSV [PEPTIDE No. 14 (21B)]
CLASS A (a: OD<0.100)
  Number of samples: 1
CLASS B (b: 0.100<OD<0.500)
  Number of samples: 3
CLASS C (c: 0.500<OD<1.000)
  Number of samples: 4
CLASS D (d: OD>1.000)
  Number of samples: 6
Serum 258 OUDI at 1/100
  ABSORBANCE (OD): 0.764
Serum 625 at 1/50
  ABSORBANCE (OD): 2.045
Serum 3600 at 1/100
  ABSORBANCE (OD): 0.716
Serum 3613 at ¼00
  ABSORBANCE (OD): 1.508
Serum 3653 at 1/10
  ABSORBANCE (OD): 0.072
Serum 4280 at 1/50
  ABSORBANCE (OD): 0.286
Serum 6111 at 1/100
  ABSORBANCE (OD): 0.850
Serum DJOU at 1/100
  ABSORBANCE (OD): 1.998
Serum DO15 at 1/100
  ABSORBANCE (OD): 3.357
Serum MBASSI at 1/100
  ABSORBANCE (OD): 2.134
Serum Maryland at ¼00
  ABSORBANCE (OD): 0.734
Serum NGO at 1/50
  ABSORBANCE (OD): 0.157
Serum NJEM at 1/100
  ABSORBANCE (OD): 0.277
Serum WANG at 1/50
  ABSORBANCE (OD): 2.397
  immunoreactivity compared with the reference peptides (in words): most immunoreactive

## RALETLLNQQRLLNSWGCKGRLVCYTSV [PEPTIDE No. 15 (22B)]
CLASS A (a: OD<0.100)
  Number of samples: 0
CLASS B (b: 0.100<OD<0.500)
  Number of samples: 2
CLASS C (c: 0.500<OD<1.000)
  Number of samples: 4
CLASS D (d: OD>1.000)
  Number of samples: 8
Serum 258 OUDI at 1/100
  ABSORBANCE (OD): 1.184
Serum 625 at 1/50
  ABSORBANCE (OD): 2.122
Serum 3600 at 1/100
  ABSORBANCE (OD): 0.801
Serum 3613 at ¼00
  ABSORBANCE (OD): 1.627
Serum 3653 at 1/10
  ABSORBANCE (OD): 0.380
Serum 4280 at 1/50
  ABSORBANCE (OD): 0.689
Serum 6111 at 1/100
  ABSORBANCE (OD): 1.207
Serum DJOU at 1/100
  ABSORBANCE (OD): 2.088
Serum DO15 at 1/100
  ABSORBANCE (OD): 3.693
Serum MBASSI at 1/100
  ABSORBANCE (OD): 2.010
Serum Maryland at ¼00
  ABSORBANCE (OD): 0.844
Serum NGO at 1/50
  ABSORBANCE (OD): 0.315
Serum NJEM at 1/100
  ABSORBANCE (OD): 0.939
Serum WANG at 1/50
  ABSORBANCE (OD): 2.680
  immunoreactivity compared with the reference peptides (in words): most immunoreactive

## RLNSWGCKGRLVCYTSV [PEPTIDE No. 16 (23B)]
CLASS A (a: OD<0.100)
  Number of samples: 2
CLASS B (b: 0.100<OD<0.500)
  Number of samples: 2
CLASS C (c: 0.500<OD<1.000)
  Number of samples: 1
CLASS D (d: OD>1.000)
  Number of samples: 9
Serum 258 OUDI at 1/100
  ABSORBANCE (OD): 1.692
Serum 625 at 1/50
  ABSORBANCE (OD): 1.791
Serum 3600 at 1/100
  ABSORBANCE (OD): 0.933
Serum 3613 at ¼00
  ABSORBANCE (OD): 1.679
Serum 3653 at 1/10
  ABSORBANCE (OD): 0.406
Serum 4280 at 1/50
  ABSORBANCE (OD): 0.033
Serum 6111 at 1/100
  ABSORBANCE (OD): 1.009
Serum DJOU at 1/100
  ABSORBANCE (OD): 2.166
Serum DO15 at 1/100
  ABSORBANCE (OD): 3.038
Serum MBASSI at 1/100
  ABSORBANCE (OD): 2.683
Serum Maryland at ¼00
  ABSORBANCE (OD): 1.229
Serum NGO at 1/50
  ABSORBANCE (OD): 0.110
Serum NJEM at 1/100
  ABSORBANCE (OD): 0.025
Serum WANG at 1/50
  ABSORBANCE (OD): 1.290
  immunoreactivity compared with the reference peptides (in words): most immunoreactive

## RLQALETLIQNQQRLNLWGCKGKLICYTSVKWNTS (cysteine pairing not given here) [MVP 5180, reference compound]
CLASS A (a: OD<0.100)
  Number of samples: 1
CLASS B (b: 0.100<OD<0.500)
  Number of samples: 12
CLASS C (c: 0.500<OD<1.000)
  Number of samples: 1
CLASS D (d: OD>1.000)
  Number of samples: 0
Serum 258 OUDI at 1/100
  ABSORBANCE (OD): 0.116
Serum 625 at 1/50
  ABSORBANCE (OD): 0.202
Serum 3600 at 1/100
  ABSORBANCE (OD): 0.206
Serum 3613 at ¼00
  ABSORBANCE (OD): 0.478
Serum 3653 at 1/10
  ABSORBANCE (OD): 0.401
Serum 4280 at 1/50
  ABSORBANCE (OD): 0.382
Serum 6111 at 1/100
  ABSORBANCE (OD): 0.226
Serum DJOU at 1/100
  ABSORBANCE (OD): 0.203
Serum DO15 at 1/100
  ABSORBANCE (OD): 0.673
Serum MBASSI at 1/100
  ABSORBANCE (OD): 0.248
Serum Maryland at ¼00
  ABSORBANCE (OD): 0.241
Serum NGO at 1/50
  ABSORBANCE (OD): 0.184
Serum NJEM at 1/100
  ABSORBANCE (OD): 0.146
Serum WANG at 1/50
  ABSORBANCE (OD): 0.075
